Measured values taken from EPA's ToxRefDB 2.

Legend:
rat [1] = details: Multigenerational reproductive toxicity study; other; Oral; Feed; dose end: 3 generation; group: parental; systemic / in life observation / body weight / body weight
rat [2] = details: Prenatal developmental toxicity study, sprague dawley, Oral, Gavage/Intubation, dose end: 15 GD
mouse [3] = details: Carcinogenicity; cd1; Oral; Feed; dose end: 18 month; group: systemic; systemic / organ weight / liver / absolute + systemic / organ weight / liver / relative to body weight + systemic / pathology microscopic / …
rat [4] = details: Multigenerational reproductive toxicity study, other, Oral, Feed, dose end: 2 generation
mouse [5] = details: Carcinogenicity; cd1; Oral; [Not Specified]; dose end: 79 week; group: systemic; systemic / hematology / erythrocyte (rbc) count differential / erythrocyte (rbc) + systemic / hematology / hematocrit (hct) / hematocrit (…
dog [6] = details: Chronic toxicity; beagle; Oral; Capsule; dose end: 52 week; group: systemic; systemic / clinical chemistry / alkaline phosphatase (alp/alk) / alkaline phosphatase (alp/alk) + systemic / hematology / blood clotting / …
rat [7] = details: Subchronic oral toxicity in rodents, sprague dawley, Feed, dose end: 90 day, group: systemic
rat [8] = details: Subchronic oral toxicity in rodents, other, Feed, dose end: 13 week
rat [9] = details: Combined chronic toxicity/carcinogenicity, sprague dawley, Oral, Feed, dose end: 106 week, group: systemic
dog [10] = details: Subchronic oral toxicity in nonrodent, beagle, Capsule, dose end: 13 week, group: systemic, systemic / hematology / blood clotting / blood clotting - activated partial thromboplastin time
[11] = group: developmental, developmental / developmental malformation / bone / delayed ossification
[12] = group: maternal, systemic / in life observation / body weight / body weight gain
[13] = group: offspring, developmental / offspring survival late / viability index / viability index
[14] = group: offspring, developmental / offspring survival late / viability index / viability index + systemic / in life observation / body weight / offspring (pup…
[15] = group: parental, systemic / organ weight / kidney / absolute
[16] = group: parental, systemic / organ weight / kidney / absolute + systemic / organ weight / kidney / relative to body weight + systemic / organ weight / liver…
[17] = systemic / urinalysis / sediment microscopic / epithelial cells
[18] = systemic / urinalysis / sediment microscopic / epithelial cells + systemic / organ weight / liver / relative to body weight
[19] = group: cholinesterase, cholinesterase / cholinesterase / cholinesterase / cholinesterase (che)
[20] = group: systemic, systemic / organ weight / liver / relative to body weight + systemic / clinical chemistry / [other] / [other] + systemic / in life …
[21] = systemic / organ weight / spleen / absolute + systemic / organ weight / liver / relative to body weight

For `O=C(O)Cc1c(Cl)ccc(Cl)c1Cl` [Chlorfenac], the LEL (rat [1]) was 125 mg/kg/day, the LOAEL (rat [1]) was > 125 mg/kg/day and the NEL (rat [1]) was 25 mg/kg/day. For the same compound, the NOAEL (rat [1]) was ≥ 125 mg/kg/day, the LEL (rat [2]; [11]) was 300 mg/kg/day and the LOAEL (rat [2]; [11]) was > 300 mg/kg/day. For the same compound, the NEL (rat [2]; [11]) was 60 mg/kg/day, the NOAEL (rat [2]; [11]) was ≥ 300 mg/kg/day and the LEL (rat [2]; [12]) was 300 mg/kg/day. For the same compound, the LOAEL (rat [2]; [12]) was > 300 mg/kg/day, the NEL (rat [2]; [12]) was 60 mg/kg/day and the NOAEL (rat [2]; [12]) was ≥ 300 mg/kg/day. The LEL (mouse [3]) was 600 mg/kg/day, the LOAEL (mouse [3]) was > 600 mg/kg/day and the NEL (mouse [3]) was 300 mg/kg/day. For the same compound, the NOAEL (mouse [3]) was ≥ 600 mg/kg/day.
Work on `CCCCCOC(=O)COc1cc(N2C(=O)C3=C(CCCC3)C2=O)c(F)cc1Cl` [Flumiclorac-pentyl] yielded an LEL (rat [4]; [13]) of 829 mg/kg/day, an LOAEL (rat [4]; [13]) of 829 mg/kg/day and an NEL (rat [4]; [14]) of 18 mg/kg/day. For the same compound, the NOAEL (rat [4]; [14]) was 18 mg/kg/day, the LEL (rat [4]; [15]) was 18 mg/kg/day and the NEL (rat [4]; [15]) was < 18 mg/kg/day. It also gave an LOAEL (rat [4]; [16]) of 829 mg/kg/day, an NOAEL (rat [4]; [16]) of 18 mg/kg/day and an LEL (mouse [5]) of 308 mg/kg/day. The LOAEL (mouse [5]) was 308 mg/kg/day, the NEL (mouse [5]) was 31.5 mg/kg/day and the NOAEL (mouse [5]) was 31.5 mg/kg/day. The LEL (dog [6]) was 1000 mg/kg/day, the LOAEL (dog [6]) was 1000 mg/kg/day and the NEL (dog [6]) was 100 mg/kg/day. It also gave an NOAEL (dog [6]) of 100 mg/kg/day, an LEL (rat [7]; [17]) of 659 mg/kg/day and an LOAEL (rat [7]; [17]) of 659 mg/kg/day. It also gave an NEL (rat [7]; [18]) of 64.9 mg/kg/day, an NOAEL (rat [7]; [18]) of 64.9 mg/kg/day and an LEL (rat [8]; [19]) of 73.8 mg/kg/day. For the same compound, the LOAEL (rat [8]; [19]) was 73.8 mg/kg/day, the NEL (rat [8]; [19]) was 7.4 mg/kg/day and the NOAEL (rat [8]; [19]) was 7.4 mg/kg/day. The LEL (rat [8]; group: systemic, systemic / clinical chemistry / [other] / [other] + systemic / in life observation / food consumption / food efficiency + systemic / in life…) was 664 mg/kg/day, the LOAEL (rat [8]; group: systemic, systemic / organ weight / liver / relative to body weight) was 1360 mg/kg/day and the NEL (rat [8]; [20]) was 67 mg/kg/day. The NOAEL (rat [8]; [20]) was 664 mg/kg/day, the LOAEL (rat [9]; systemic / organ weight / liver / relative to body weight + systemic / organ weight / kidney / absolute + systemic / organ weight / liver / …) was 360 mg/kg/day and the LEL (rat [9]; [21]) was 3.5 mg/kg/day. The NEL (rat [9]; [21]) was < 3.5 mg/kg/day, the NOAEL (rat [9]; systemic / organ weight / spleen / absolute + systemic / organ weight / liver / relative to body weight + systemic / organ weight / kidney…) was 35.4 mg/kg/day and the LEL (dog [10]) was 100 mg/kg/day. It also gave an LOAEL (dog [10]) of 100 mg/kg/day, an NEL (dog [10]) of 10 mg/kg/day and an NOAEL (dog [10]) of 10 mg/kg/day.
